Where “and” joins values, the source holds several entries; their conditions need not be identical. Equal entries are not always repeated.
Legend:
L6-GLUT4myc myotubes [1] = assay: GLUT4 translocation: cell surface GLUT4myc by anti-Myc antibody assay in L6-GLUT4myc myotubes; assay type: cell-based, rat
[2] = tested on: IRβ, IRS1, Akt (Ser473), AS160; assay: Phosphorylation of IRβ, IRS1, Akt and AS160 in triceps surae muscle (immunoblot); assay type: in vivo, mouse; conditions: skeletal muscle, DS20060511 10 mg kg−1 or insulin 5 U kg−1; for phosphorylation of IRβ-subunit and IRS1: Fig. 4a; for phosphorylation of Akt and AS160: Fig. 4b
Experimental: The tissue sample was homogenized with a Polytron homogenizer and lysed in a lysis buffer (25 mM Tris-HCl, pH 7.4, 100 mM NaF, 50 mM Na4P2O7, 10 mM EGTA, 10 mM EDTA, 10 mM Na3VO4, 1 mM PMSF, and 1% NP-40) on ice, and the lysate was centrifuged at 17,860 × g for 10 min at 4 °C. The supernatant was collected and the protein concentrations were determined by BCA assay (Thermo Fisher Scientific). Immunoprecipitation of IRβ and IRS1 was performed as described previously, using specific antibodies against IRβ (sc-711, Santa Cruz Biotechnology, Dallas, TX), IRS1 (06-248, Merck Millipore, Burlington, MA), and for detection of phosphotyrosine (05-321, Merck Millipore). Five milligrams of the extracts were incubated with specific antibodies against IRS1 for 1 h at 4 °C. Then, protein G-Sepharose was added, followed by incubation for 2 h at 4 °C. After washing three times, the immunocomplexes were subjected to immunoblotting.
Phosphorylated or total protein of IRβ and IRS1 was resolved on 7% SDS-PAGE and analyzed using specific antibodies against IRβ, IRS1, and phosphotyrosine. Analyses were also conducted for phosphorylated Akt (1:2000), Akt (1:2,000), AS160 (1:1,000), phospho-AS160 (1:1,000), AMPKα (1:1,000), phospho-AMPKα (1:1,000), GLUT4 (1:200), Na,K-ATPaseα (1:1,000), GAPDH (1:1,000) by immunoblotting with specific antibodies after the tissue lysates were resolved on SDS-PAGE and transferred to a PVDF membrane using Trans-Blot Turbo transfer system (Bio-Rad Laboratories, Hercules, CA). Bound antibodies were detected with HRP-conjugated secondary antibodies using ECL detection reagents (GE Healthcare, Chicago, IL).

L6-GLUT4myc myotubes [3] = assay: Fluorescence immunostaining of cell surface GLUT4 and actin fibers in L6-GLUT4myc myotubes; assay type: cell-based, rat; conditions: 30 μM DS20060511 or 100 nM insulin; Fig. 4c
Experimental: Arrowheads indicate the characteristic ruffled structure of the polymerized actin and actin-associated surface GLUT4. d GLUT4 translocation activity of 30 μM DS20060511 or 100 nM insulin in the presence of the actin polymerization inhibitor, Latrunculin B, at the indicated concentrations. Values shown are means ± SEM, n = 3. **P < 0.01 vs. 0 nM Latrunculin B by one-way ANOVA followed by Dunnett’s test. e Concentration-dependent insulin-stimulated GLUT4 translocation in L6-GLUT4myc myotubes with or without 30 μM DS20060511 (n = 3). f Concentration-dependent DS20060511-stimulated 2-DG uptake with 100 nM insulin in isolated muscles from C57BL/6 mice (n = 3). Values shown are means ± SEM. ***P < 0.001 by one-way ANOVA followed by Tukey’s test. g Blood glucose levels during ITT in STZ-treated C57BL/6 mice (n = 6–7). Vehicle or indicated dose of DS20060511 was given orally at the same time as 0.1 U kg^−1 insulin injection intraperitoneally. Values shown are means ± SEM. *P < 0.05 vs. vehicle by one-way ANOVA followed by Dunnett’s test. c Scale bar in all panels, 5 μm. Uncropped blots for a and b can be found in Supplementary Fig. 6.
Differentiated L6-GLUT4myc myotubes were prepared in a collagen-coated four-well chamber slide. After serum starvation for 3 h, the cells were stimulated with insulin or DS20060511 for 15 min at 37 °C. Cells were rinsed with cold PBS(+), fixed with 4% paraformaldehyde for 30 min on ice and blocked with 1% BSA and 10% normal goat serum in PBS(+) for 30 min at room temperature. Surface GLUT4myc staining was carried out without cell membrane permeabilization. Cells were incubated with anti-c-Myc antibody for 30 min at room temperature, followed by treatment with 0.1% Triton-X. After blocking, the cells were incubated with Alexa 488-conjugated secondary antibody and Alexa 594-conjugated phalloidin for 30 min at room temperature. Fluorescence images were obtained with a Leica TSC-SP8 confocal microscope. Specimens were scanned along the z-axis and a single-composite image was generated by the maximal projection method using the LAS software (Leica Microsystems, Wetzlar, Germany).

Row | Molecule | A: Abs. (450 nm) (L6-GLUT4myc myotubes [1]; Insulin 100 nM) | phosphorylation of IRβ-subunit and IRS1 [2] | phosphorylation of Akt and AS160 [2] | actin polymerization (L6-GLUT4myc myotubes [3]) | staining of GLUT4 at the cell surface (L6-GLUT4myc myotubes [3]) | A: Abs. (450 nm) (L6-GLUT4myc myotubes [1]; DS20060511 0.1 μM, replicates 1-3)
1 | Insulin: Insulin (Humulin, Eli Lilly) in the in vivo experiments; Insulin solution human (I9278, Sigma–Aldrich) in the in vitro experiments | 0.287 and 0.285 and 0.286 | phosphorylated | induced phosphorylation of Akt and AS160 | observed only following insulin treatment | strong staining of GLUT4 at the cell surface | 
2 | COc1ccc2c(C)c(C(=O)O)ccc2c1C1C2=C(CC(C)(C)CC2=O)OC2=C1C(=O)CC(C)(C)C2 [DS20060511] |  | no such phosphorylation of these proteins was observed | no such effect | observed only following insulin treatment | strong staining of GLUT4 at the cell surface | 0.190 (2×) and 0.196

From PMC8379256, “A xanthene derivative, DS20060511, attenuates glucose intolerance by inducing skeletal muscle-specific GLUT4 translocation in mice” (Communications Biology, 2021)
